Holding throughout (type): physicochemical
Data set [1] in a line: Encapsulation efficiency and loading capacity of solid lipid microspheres (UV after dissolving in chloroform).
Experimental: The standard curves were constructed in a concentration range of 3-70 µg/mL in 10 mM PBS with R^2 value of 0.9993 and in a concentration range of 15-800 µg/mL in chloroform with R^2 value of 0.9935.
Encapsulation efficiency is percentage of drug encapsulated in the microspheres relating to initial quantity used. 10 mg of microspheres were dissolved in 4 mL of chloroform. The absorbance of the drugs was measured using a UV-VIS spectrophotometer after appropriate dilution in order to reach calibration curve concentrations. The measured absorbance was then converted to the amount of drug by using standard calibration curve.
The loading capacity is usually expressed as the ratio of the weight of entrapped drug and the total weight of the lipid and coating particles in percentage.
Drug entrapment efficiency is calculated in order to determine the amount of drug that is actually retained in the microparticles related to the amount of drug that was mixed with lipid before particles formation, and usually expressed as a percentage.
The nature of data set [2]: In vitro drug release from beeswax microspheres (Example 6). The procedure:
10 mg of microspheres were mixed with 5 mL of H2O or buffer and placed in the incubator. Three samples of each formulation were run at same conditions. A 3 mL samples were withdrawn at predetermined time intervals and an equal volume of fresh dissolution medium was replaced.
In vitro drug release for the obtained microspheres was studied in 5 ml of 10 mM buffer phosphate solution, pH 7.4 or in ddH2O at 37° C.

A short description of data set [3]: Fluazinam release from microparticles immersed in water. Particulars: hydrogenated vegetable oil particles decorated with modified silica nanoparticles, about 20 microns, room temperature.
Data set [4] in a line: Release of drugs from Pickering particles in phosphate buffer (Example 3). Particulars: for time within which almost all the drug was released: 1% (w/w) drug loaded Pickering dispersion, aqueous solution, room temperature; for release behaviour from the Pickering particles in the release medium: FIGS. 6, buffer medium. The protocol: Release of drugs from particles: Standard curve of drug was prepared in 10 mM phosphate buffer at pH 7.2. 10 mg of drug loaded lyophilized Pickering particles were added to 2 mL of buffer and the periodic isolated solution was analyzed by UV. The release was examined at room temperature. This was done in purpose to examine the drug release properties from the Pickering particles. The analysis of initial 30 min of release is considered as the burst release of drugs from the particles (FIGS. 6).
Release of ibuprofen from 1% (w/w) drug loaded Pickering dispersion. The release of ibuprofen was monitored by UV at the wavelength of 223 nm.
Release of ketoprofen from 1% (w/w) drug loaded Pickering dispersion. Standard curve of ketoprofen was prepared in 10 mM phosphate buffer at pH 7.2 at wavelength of 260 nm.
The particles were checked for the drug release with time. FIGS. 6 provides the release of the drug loaded Pickering particles in a buffer medium.

A short description of data set [5]: Weight loss of DEET loaded microparticles at accelerated temperature. Particulars: 30% w/w DEET loaded microparticles, 1:10 SiO2-NH2:hydrogenated vegetable oil, accelerated temperature 50° C., 1 h. The protocol: Drug loading: DEET insect repellent 30% (w/w): 30% w/w of DEET was loaded into the microparticles. The selection of the 30% drug content was based on the dissolving the DEET into the molten oil and then cooled down. The DEET loading was examined for 1:1, 1:2, 1:10 and 1:20 ratio SiO2-NH2:hydrogenated vegetable oil. The DEET loaded particles were tested by weight loss in the DEET loaded 1:10 ratio was examined. Accelerated temperature of 50° C. was used. The weight sample was heated to […] and monitored the weight loss for 1 h. 2% decrease in the weight loss of the DEET loaded microparticles was observed.

A value given as a limit tells only on which side of the number the result lay.

On to `CCN(CC)CC(=O)Nc1c(C)cccc1C` [Lidocaine], for which the entrapment efficacy in data set [1] (Lidocaine in Beeswax-Chitosan particles (pH 6.5)) is listed as 49%. Moreover, the “drug released in initial burst, first 24 h” value in data set [2] (Lidocaine from Beeswax-Chitosan microspheres, 10 mM phosphate buffer pH 7.4, 37° C.) is recorded as “about 70%”.

Consider `O=[N+]([O-])c1cc(C(F)(F)F)c(Cl)c([N+](=O)[O-])c1Nc1ncc(C(F)(F)F)cc1Cl` [Fluazinam], for which the “release behaviour in water” value in data set [3] is “constantly releasing”.

The compound `CC(C)Cc1ccc(C(C)C(=O)O)cc1` (stereo not drawn) [ibuprofen] yielded a loading capacity in data set [1] (Ibuprofen in Beeswax-Starch MSs, average of three experiments) of 15.7%. The same compound came in with an entrapment efficiency in data set [1] (Ibuprofen-loaded microspheres from beeswax and starch) of 71%. The “time during which most of the drug was released” value in data set [2] (Ibuprofen from Beeswax-Starch MSs, PBS pH 7.4, 37° C.) is given as 4 days. The “further continuation of release in water compared with buffer” value in data set [2] (Ibuprofen from Beeswax-Starch MSs, ddH2O, 37° C.) is listed as 7 days. In addition, in data set [4], the “time within which almost all the drug was released” value was at most 30 min and the “release behaviour from the Pickering particles in the release medium” value is on record as “sustained release”.

Turning to `CC(C(=O)O)c1cccc(C(=O)c2ccccc2)c1` (stereo not drawn) [ketoprofen], the “time within which almost all the drug was released” value in data set [4] is at most 30 min.

Regarding `CCN(CC)C(=O)c1cccc(C)c1` [DEET], the “decrease in weight (weight loss)” value in data set [5] worked out at 2%.

In the case of `CN(C)CCC[C@@]1(c2ccc(F)cc2)OCc2cc(C#N)ccc21` [escitalopram], the “release behaviour from the Pickering particles in the release medium” value in data set [4] was “sustained release”.

The record behind these values is US20230263754A1, “SOLID DISPERSIONS AND PARTICLES AND METHODS FOR CONTROLLED-RELEASE OF LIPID-SOLUBLE OR DISPESIBLE ACTIVES” (YISSUM RESEARCH DEVELOPMENT COMPANY OF THE HEBREW …, priority 2020, published 2023).
